For this assay, the system named is Entamoeba histolytica. The experiment in a line: Antiamoebic activity against Entamoeba histolytica HM-1:IMSS after 72 hrs. The format is functional, organism-based.

By IC50 is commonly meant the concentration that gives 50% inhibition. Low readings indicate inhibition by little substance, high ones a need for much substance. On to `Cc1ccccc1NC(=S)N1N=C(c2ccccc2)CC1c1ccccc1` (stereo not drawn), for which the half-maximal inhibitory concentration (IC50) was found to be 4790 nM.
In the case of `S=C(NCc1ccccc1Cl)N1N=C(c2ccccc2)CC1c1ccccc1` (stereo not drawn), the concentration for half-maximal inhibition (IC50) is 11000 nM.
The molecule `S=C(N1CCN(c2ccccc2)CC1)N1N=C(c2ccccc2)CC1c1ccccc1` (stereo not drawn) gave an IC50 of 1800 nM.
Under `S=C(N1CCC(Cc2ccccc2)CC1)N1N=C(c2ccccc2)CC1c1ccccc1` (stereo not drawn) stands 1600 nM; under `Cc1cccc(NC(=S)N2N=C(c3ccccc3)CC2c2ccccc2)c1` (stereo not drawn), 10700 nM; under `CN(Cc1ccccc1)C(=S)N1N=C(c2ccccc2)CC1c1ccccc1` (stereo not drawn), 2800 nM.
Turning to `S=C(N1CCCc2ccccc21)N1N=C(c2ccccc2)CC1c1ccccc1` (stereo not drawn), the IC50 amounted to 450 nM.
Under `Cc1ccc(NC(=S)N2N=C(c3ccccc3)CC2c2ccccc2)cc1` (stereo not drawn) stands 380 nM.
